Source: US5550110A, “Endothelin Antagonists II” (Warner-Lambert Company, priority 1994, dated 1996)
Peptide text beside a SMILES is read from it.

Tests used:
[1] = biological target: T1, endothelin receptor (ETB), rat cerebellar membranes (Rattus norvegicus, UniProt P21451); assay: Endothelin Receptor Binding Assay-B (ERBA-B), [125I]-ET-1 binding in rat cerebellar membranes; details: [125I]-ET-1 25 pM, read-out: ERRA-B IC50
T1 construct: thaw one aliquot of frozen rat cerebellar membranes (2 mg protein in 0.5 mL); from tissue; host or cells: rat cerebellum (membranes)
T1 sequence (P21451 27-442): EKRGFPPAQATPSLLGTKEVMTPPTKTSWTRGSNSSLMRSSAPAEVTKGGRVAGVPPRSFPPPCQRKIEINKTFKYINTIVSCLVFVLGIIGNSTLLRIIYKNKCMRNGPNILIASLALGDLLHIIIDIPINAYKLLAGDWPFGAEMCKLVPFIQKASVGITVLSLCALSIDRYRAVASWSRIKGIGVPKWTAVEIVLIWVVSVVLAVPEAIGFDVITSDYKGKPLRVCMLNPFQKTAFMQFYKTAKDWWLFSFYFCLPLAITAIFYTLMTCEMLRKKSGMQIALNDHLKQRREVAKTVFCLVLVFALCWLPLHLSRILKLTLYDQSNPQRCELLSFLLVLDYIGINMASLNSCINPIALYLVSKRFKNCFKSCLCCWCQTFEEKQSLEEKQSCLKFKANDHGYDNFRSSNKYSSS
Description: Endothelin Receptor Binding Assay-B (ERBA-B) [^125 I]-ET-1 Binding in Rat Cerebellar Membranes
The tissue is made up of 20 mM tris(hydroxymethyl)aminomethane hydrochloride (Trizma) buffer, 2 mM ethylenediaminetetra acetate, 100 μM phenylmethylsulfonyl fluoride.
First, thaw one aliquot of frozen rat cerebellar membranes (2 mg protein in 0.5 mL). Next, add 0.5 mL membrane aliquot to 4.5 mL cold tissue buffer, polytron at 7,500 revolutions per minute for 10 seconds. Finally, dilute tissue suspension 1/100 (0.1 mL suspension+9.9 mL tissue buffer), polytron again, and place ice.
Medium 199 with Hank's salts plus 25 mM Hepes+1 mg/mL bovine serum albumin.
Amersham [^125 I]-ET-1 (aliquots of 2×10^6 cpm per […] aliquot of [^125 I]-ET-1 with 5.2 mL dilution buffer, place on ice until use (final concentration will be 20,000 cpm per tube, or 25 pM).
Add 50 μL each of cold [^125 ]-ET-1 and competing ligand to tubes on ice. Mix in 150 μL of tissue to each tube, vortex briefly, then tap to force all liquids to bottom (total assay volume=250 μL). Then place the tubes in a 37° C. water bath for 2 hours.
Add 2.5 mL cold wash buffer (50 mM Trizma buffer) to each tube, filter, and then wash tube with additional 2.5 mL wash buffer and add to filter. Finally, wash filters with an additional 2.5 mL of cold wash buffer.
Count filters for radioactivity in gamma counter.

[2] = biological target: T2, rat recombinant ETB receptor (CHO cells) (Rattus norvegicus, UniProt P21451); assay: Inhibition of ET-1 stimulated arachidonic acid release (AAR-B); format: cell-based; details: ET-1 0.3 nM
T2 construct: expressed in transfected cells; host or cells: CHO cells
T2 sequence (P21451 27-442): T1 sequence (P21451 27-442)
Description: (§1) In Vitro Inhibition of ET-1 Stimulated Arachidonic Acid Release in Cultured Rabbit Vascular Smooth Muscle Cells (AAR-A) or CHO Cells Expressing Rat Recombinant ETB Receptor (AAR-B) by Compounds of Formula I
(§2) Antagonist activity is measured by the ability of added compounds to reduce endothelin-stimulated arachidonic acid release in cultured vascular smooth muscle cells as arachidonic acid release (AAR). [^3 H] Arachidonic Acid Loading Media (LM) is DME/F12+0.5% fetal calf serum (FCS)×0.25 mCi/mL [^3 H] arachidonic acid (Amersham). Confluent monolayers of cultured rabbit renal artery vascular smooth muscle cells (AAR-A) or CHO cells expressing rat recombinant ETB receptor (AAR-B) were incubated in 0.5 mL of the LM over 18 hours, at 37° C., in 5% CO2. The LM was aspirated and the cells were washed once with the assay buffer (Hank's balanced salt solution [BSS]+10 mM HEPES+fatty acid-free BSA (1 mg/mL)), and incubated for 5 minutes with 1 mL of the prewarmed assay buffer. This solution was aspirated, followed by an additional 1 mL of prewarmed assay buffer, and further incubated for another 5 minutes. A final 5-minute incubation was carried out in a similar manner. The same procedure was repeated with the inclusion of 10 μL of the test compound (1 nM to 1 μM) and 10 μL ET-1 (0.3 nM) and the incubation was extended for 30 minutes. This solution was then collected, […] of scintillation cocktail was added, and the amount of [^3 H] arachidonic acid was determined in a liquid scintillation counter.

[3] = test system: endothelin receptor, cultured rabbit renal artery vascular smooth muscle cells; assay: Inhibition of ET-1 stimulated arachidonic acid release (AAR-A); format: cell-based; details: ET-1 0.3 nM
Description: as §1, §2

[4] = test system: ET-1 pressor activity; assay: Conscious rat duration of action study; format: in vivo; details: 10 mg/kg IV; for inhibition of ET-1 pressor activity: ganglionically blocked conscious rats, n=4
Excerpt: Conscious Rat Duration of Action Study
Nonfasted rats (350-500 g) were used and anesthetized with Metofane (methoxyflurane) by inhalation. The rats were jugular cannulated (PE50) for IV administration of mecamylamine-HC1 (MEC), ET-1 and Ac-D-Bhg-Leu-Asp-Ile-N-MeIle-Trp (Example 19) Seq ID No: 20, and carotid cannulated (PE50) for arterial blood pressure measurements. Rats were attached to a swivel for freedom of movement, and food and water were available ad lib. Prior to the experiment, the animals were allowed to recover from anesthesia for 60 minutes. […] Ac-D-Bhg-Leu-Asp-Ile-N-MeIle-TrP (Example 19) Seq ID No: 20 was administered at a dose of 10 mg/kg IV.

[5] = test system: endothelin receptor (ETA), rabbit renal artery vascular smooth muscle cells; assay: Endothelin Receptor Binding Assay-A (ERBA-A), intact cell binding of [125I]-ET-1; details: [125I]-ET-1 25 pM
Description: The compounds of Formula I are valuable antagonists of endothelin. […] Thus, the compounds of Formula I were tested for their ability to inhibit [^125 I]-ET-1([^125 I]-Endothelin-1) binding in a receptor assay according to the following procedures: Endothelin Receptor Binding Assay-A (ERBA-A) Intact Cell Binding of [^125 I]-ET-1 The cells used were rabbit renal artery vascular smooth muscle cells grown in a 48-well dish (1 cm^2) (confluent cells). The assay buffer was a medium 199 containing Hanks salts and 25 mM Hepes buffer (Gibco 380-2350AJ), supplemented with penicillin/streptomycin/fungizone (0.5%) and bovine serum albumin (1 mg/mL). Amersham radioiodinated endothelin-1 [^125 I]-ET-1 was used at final concentration of 20,000 cpm/0.25 mL (25 pM). […] Second, remove the assay buffers, place the dish on ice, and add 150 μL of cold assay buffer described above to each well. Third, add […] each of cold [^125 I]-ET-1 and competing ligand to the solution (at the same time if possible). Next, place dish in a 37° C. water bath for about 2 hours and gently agitate the dish every 15 minutes. Discard the radioactive incubation mixture in the sink and wash wells 3 times with 1 mL of cold phosphate buffered saline. Last, add […] of 0.25 molar sodium hydroxide, agitate for 1 hour on a rotator, and then transfer the sodium hydroxide extract to gamma counting tubes and count the radioactivity.

Row | Structure (SMILES) | IC50 [1] | IC50 [2] | IC50 [3] | duration of activity in vivo [4] | inhibition of ET-1 pressor activity ([4]; 5 minutes postdose) | inhibition of ET-1 pressor activity ([4]; 30 minutes postdose) | IC50 [5]
1 | CC[C@H](C)[C@H](NC(=O)[C@H](CC(=O)O)NC(=O)[C@H](CC(C)C)NC(=O)[C@H](NC(C)=O)C1c2ccccc2CCc2ccccc21)C(=O)N[C@H](C(=O)N[C@@H](Cc1c[nH]c2ccccc12)C(=O)O)[C@@H](C)CC [Example 1, Ac-D-Bhg-Leu-Asp-Ile-Ile-Trp] (HELM PEPTIDE1{[ac].[O=C([C@H](N[*:1])C1c2ccccc2CCc2ccccc21)[*:2]].L.D.I.I.W}$$$$V2.0) | 19 nM | 20 nM |  |  |  |  | 
2 | CC[C@H](C)[C@H](NC(=O)[C@H](CC(=O)O)NC(=O)[C@H](CC(C)C)NC(=O)[C@H](NC(C)=O)C1c2ccccc2CCc2ccccc21)C(=O)N(C)[C@H](C(=O)N[C@@H](Cc1c[nH]c2ccccc12)C(=O)O)[C@@H](C)CC [Example 19, Ac-D-Bhg-Leu-Asp-Ile-N-MeIle-Trp] (HELM PEPTIDE1{[ac].[O=C([C@H](N[*:1])C1c2ccccc2CCc2ccccc21)[*:2]].L.D.I.[meI].W}$$$$V2.0) | 40 nM |  | 4.3 nM | prolonged activity | 81% | 58% | 0.5 nM
